In paper PMC7763603, “Structural Basis for Design of New Purine-Based Inhibitors Targeting the Hydrophobic Binding Pocket of Hsp90” (International Journal of Molecular Sciences, 2020):
Where two headings read alike, the source gives them in different places. Each block holds one molecule with its values, some of them ahead of it.

Assays:
MCF-7 cells = assay: MTT antiproliferative assay, MCF-7; assay type: cell-based, human; conditions: for inhibition at 10 µM / GI50: Homo sapiens, MCF7, 72 h; for inhibition at 10 µM: read-out: MCF-7 % Inh. at 10 μM; for GI50: mean ± SEM of two experiments
Procedure: The growth inhibitory effects of the test compounds, at 10 µM dose, were determined after 72 h incubation using the 3-(4,5-dimethylthiazol-2-yl)-2,5-diphenyl tetrazolium bromide (MTT) assay. […] Such modest cellular outcomes of those purine derivatives may be attributed to their lower lipophilic characters, which in turn restrict their cellular permeability into cancer cells. […] The 2-phenyloxazole-substituted purine 8 exerted reasonable antiproliferative activity, with GI values of 33.27% and 37.46% against MCF-7 and SK-BR-3 cells, respectively.
(§1) Cytotoxic activity of certain Hsp90 inhibitors against human cancer cell lines (MCF-7, SK-BR-3, and HCT116) was investigated using the MTT assay following the reported procedure. Cells were seeded into 96-well plates at a density of 3000 cells per well (MCF-7, HCT116, SK-BR-3 cells per each well). The compounds were added into cells and incubated for 72 h. Then, absorbance at 450 nm was measured using a Microplate Absorbance Reader (Bio-Rad, Hercules, CA, USA).

[1] = biological target: T1, human recombinant N-terminal Hsp90α (Homo sapiens, UniProt P07900); assay: Fluorescence polarization competition assay with FITC-GM probe (Reaction Biology Corporation); assay type: binding; conditions: for inhibition at 10 µM: read-out: Hsp90α % Inhibition @10 μM; for IC50: 10-dose, threefold serial dilution starting at 100 μM, mean of two experiments
T1 construct: human recombinant N-terminal Hsp90α protein; purchased Reaction Biology Corporation (RBC, Malvern, PA, USA; assay service)

HCT116 cells = assay: MTT antiproliferative assay, HCT116; assay type: cell-based, human; conditions: for GI50: mean ± SEM of two experiments; for inhibition at 10 µM: read-out: HCT116 % Inh. at 10 μM
Procedure: The growth inhibitory effects of the test compounds, at 10 µM dose, were determined after 72 h incubation using the 3-(4,5-dimethylthiazol-2-yl)-2,5-diphenyl tetrazolium bromide (MTT) assay.
as §1

SK-BR-3 cells = assay: MTT antiproliferative assay, SK-BR-3; assay type: cell-based, human; conditions: for GI50: mean ± SEM of two experiments; for inhibition at 10 µM: read-out: SK-BR-3 % Inh. at 10 μM
Description: […] […] Such modest cellular outcomes of those purine derivatives may be attributed to their lower lipophilic characters, which in turn restrict their cellular permeability into cancer cells. […] The 2-phenyloxazole-substituted purine 8 exerted reasonable antiproliferative activity, with GI values of 33.27% and 37.46% against MCF-7 and SK-BR-3 cells, respectively.
as §1

[2] = biological target: T2, mHsp90ND (N-terminal domain of mouse Hsp90α) (Mus musculus, UniProt P07901); assay: Isothermal titration calorimetry (ITC); assay type: binding
T2 construct: Hsp90α (residues 9–225 Swiss Prot entry: P07901); His6 (N); made in house; host or cells: Escherichia coli BL21 (DE3) codon plus RIL
Procedure: The PCR product was cloned into plasmid pET28a, which encodes a purification tag consisting of the amino acids His6 at the N-terminal of the protein. mHsp90ND was expressed in Escherichia coli (E. coli) BL21 (DE3) codon plus RIL (Stratagene) cell. The cells were lysed by sonication in 50 mM Tris-HCl (pH 7.4), 100 mM NaCl, 2 mM 2-mercaptoethanol, and 0.2 mM phenylmethylsulfonyl fluoride (PMSF). After centrifugation, mHsp90ND in the supernatant was purified by Ni^2+-chelated Hi-trap chelating column, and HiLoad 26/60 200pg column (GE healthcare, Chicago, IL, USA). After the final step, mHsp90ND was stored in 20 mM Tris-HCl (pH 7.4), 100 mM NaCl, and 1 mM dithiothreitol (DTT).
Stock solutions of those compounds were prepared in dimethyl sulfoxide (DMSO) at 100 mM concentration and stored at −20 °C. The ITC buffer contained 20 mM Tris (pH 8.0), 100 mM NaCl, and up to 2% DMSO. […] The experimental raw data were corrected for dilution by subtracting the values for buffer alone and then fit by a one-site binding model. Titration data were fit using a nonlinear least squares curve-fitting algorithm with three floating variables: stoichiometry, binding constant (KD), and change of enthalpy of interaction.

Hsp90α = Hsp90α (Homo sapiens, UniProt P07900); assay: Colorimetric determination of ATPase activity of Hsp90; assay type: biochemical; conditions: 50 µM compound, 30 min, compared to positive control with Hsp90α, duplicate
Procedure: The reaction was terminated by adding 200 μL reagent buffer. Followed by incubation with reagent buffer for 30 min at the room temperature, the absorbance was measured at 620 nm using a Biotek-Synergy Neo-Plate Reader (BioTek Instruments, Winooski, VT, USA).

[3] = system: HSP90 client proteins (EGFR, Akt), Hsp70 in MCF7 cells; assay: Western blot of HSP90 client proteins and Hsp70 in MCF7 cells; assay type: cell-based, human; conditions: 24 h
Procedure: Furthermore, the effect of compound 14 on cellular biomarkers of the HSP90 inhibition was evaluated to obtain insights about the molecular mechanisms triggering its anticancer activity. MCF7 cells were incubated with various doses of compound 14 (0.5, 1, 5, 10, and 20 μM) for 24 h, and the expression levels of HSP90 client proteins (EGFR, Akt, and Cdk4), Hsp90, HSP70, and glyceraldehyde-3-phosphate dehydrogenase (GAPDH) were determined by Western blot analysis (Figure 6).
MCF7 cells were seeded in 60 mm culture dishes, incubated overnight, and treated with the indicated concentrations of compound 14 or geldanamycin for 24 h. Cells were then harvested and lysed on ice by radioimmunoprecipitation assay (RIPA) buffer (23 mM Tris-HCl (pH 7.6), 130 mM NaCl, 1% nonidet P-40 (NP-40), 1% sodium deoxycholate, 0.1% SDS) supplemented with protease and phosphatase inhibitor cocktails, and […] of lysate perlane was separated by SDS-PAGE, followed by transferring to a polyvinylidene fluoride (PVDF) membrane (Bio-Rad, Hercules, CA, USA). The membrane was blocked with 5% skim milk in TBS-T, and then incubated with the corresponding primary antibody (EGFR, Akt, Hsp90, Hsp70, or GAPDH). After binding of an appropriate secondary antibody (Santa Cruz, CA, USA) coupled to horseradish peroxidase, proteins were visualized by enhanced chemiluminescence (ECL) according to the instructions of the manufacturer (GE healthcare, Chicago, IL, USA).

[4] = parameters: method as in PMID 22938030; conditions: in mice; cited from earlier work
[5] = single dose 10 μM, duplicate, FITC-GM probe
[6] = Homo sapiens, HCT-116, 72 h, 10 μM
[7] = Homo sapiens, SK-BR-3, 72 h, 10 μM
[8] = ITC, 25 °C, one-site binding model
[9] = ITC, 25 °C, one-site binding model, read-out: KD

Molecule: 6-Chloro-9-((2-phenyloxazol-5-yl)methyl)-7H-purin-2-amine [Compound 8]
- MCF-7 % Inh. at 10 μM (MCF-7 cells; 10 μM, 72 h): 33.27%
- Hsp90α % Inhibition @10 μM [1, 5]: 48.7%
- HCT116 % Inh. at 10 μM (HCT116 cells; 10 μM, 72 h): 19.19%
- GI50 (HCT116 cells; 72 h): 23400 ± 2940 nM
- SK-BR-3 % Inh. at 10 μM (SK-BR-3 cells; 10 μM, 72 h): 37.46%
- GI50 (SK-BR-3 cells; 72 h): 22500 ± 700 nM

Molecule: COc1c(C)cnc(Cn2cnc3c(Cl)nc(N)nc32)c1C [BIIB021, reference compound]
- inhibition at 10 µM (MCF-7 cells; 10 μM): 84.8%
- GI50 (MCF-7 cells): 392 ± 30 nM
- inhibition at 10 µM (HCT116 cells; [6]): 86.2%
- inhibition at 10 µM (SK-BR-3 cells; [7]): 71.9%
- GI50 (SK-BR-3 cells; Homo sapiens, SK-BR-3, 72 h): 347 ± 23 nM

Molecule: CCOC(=O)c1cc(Cn2cnc3c(Cl)nc(N)nc32)no1 [Compound 7, Ethyl 3-((2-amino-6-chloro-9H-purin-9-yl)methyl)isoxazole-5-carboxylate]
- inhibition at 10 µM [1, 5]: 14.8%

Molecule: Nc1nc(Cl)c2c(ncn2Cc2cnc(-c3ccccc3)o2)n1 [Compound 9, 6-Chloro-7-((2-phenyloxazol-5-yl)methyl)-7H-purin-2-amine]
- Hsp90α % Inhibition @10 μM [1, 5]: fluorescence background that interfered with the assay

Molecule: Cc1ccc(C#CCn2cnc3c(Cl)nc(N)nc32)cc1 [Compound 10, 6-Chloro-9-(3-(p-tolyl)prop-2-yn-1-yl)-9H-purin-2-amine]
- inhibition at 10 µM [1, 5]: 22.2%

Molecule: Cc1ccc(C#CCn2cnc3nc(N)nc(Cl)c32)cc1 [Compound 11, 6-Chloro-7-(3-(p-tolyl)prop-2-yn-1-yl)-7H-purin-2-amine]
- Hsp90α % Inhibition @10 μM [1, 5]: fluorescence background that interfered with the assay

Molecule: Cc1ccc(-c2[nH]nnc2Cn2cnc3c(Cl)nc(N)nc32)cc1 [Compound 12, 6-Chloro-9-((5-(p-tolyl)-1H-1,2,3-triazol-4-yl)methyl)-9H-purin-2-amine]
- Hsp90α % Inhibition @10 μM [1, 5]: fluorescence background that interfered with the assay

Molecule: Cc1ccc(-c2[nH]nnc2Cn2cnc3nc(N)nc(Cl)c32)cc1 [Compound 13, 6-Chloro-7-((5-(p-tolyl)-1H-1,2,3-triazol-4-yl)methyl)-7H-purin-2-amine]
- Hsp90α % Inhibition @10 μM [1, 5]: fluorescence background that interfered with the assay

Molecule: Cc1ccc(Cn2cnc3c(Cl)nc(N)nc32)cc1 [Compound 14, 6-Chloro-9-(4-methylbenzyl)-9H-purin-2-amine]
- activity at 50 µM (Hsp90α): 83.6%
- ∆H ([2]; ITC, 25 °C): -17.8 ± 0.2 kcal/mol
- ∆S ([2]; ITC, 25 °C): −30.5 cal/mol/deg
- N (binding stoichiometry) [2, 8]: 0.89
- Kd [2, 9]: 410 nM
- inhibition at 10 µM (MCF-7 cells; 10 μM): 55.1%
- GI50 (MCF-7 cells): 16200 ± 710 nM
- IC50 ([1]; FITC-GM probe): 1000 nM
- inhibition at 10 µM [1, 5]: 95.4%
- EGFR expression level ([3]; 10 μM): remarkably decreased
- Akt expression level ([3]; 20 μM): remarkably decreased
- Hsp70 expression level ([3]; 0.5-20 μM, dose-dependent): upregulated
- inhibition at 10 µM (HCT116 cells; [6]): 46.5%
- inhibition at 10 µM (SK-BR-3 cells; [7]): 60.9%
- GI50 (SK-BR-3 cells; Homo sapiens, SK-BR-3, 72 h): 15200 ± 2080 nM

Molecule: C=CCNC1=C2C[C@@H](C)C[C@H](OC)[C@H](O)[C@@H](C)/C=C(\C)[C@H](OC(N)=O)[C@@H](OC)/C=C\C=C(/C)C(=O)NC(=CC1=O)C2=O [Compound 17-AAG, Allyl-aminogeldanamycin, reference compound]
- Kd [2]: 2900 nM
- N (binding stoichiometry) [2]: 0.98
- ∆H [2]: -8.6 ± 0.4 kcal/mol
- ∆S [2]: −3.66 cal/mol/deg
- inhibition at 10 µM (MCF-7 cells; 10 μM): 79.7%
- GI50 (MCF-7 cells): 498 ± 60 nM
- inhibition at 10 µM [1]: 100%
- inhibition at 10 µM (HCT116 cells; [6]): 88.9%
- GI50 (HCT116 cells; Homo sapiens, HCT-116, 72 h): 205 ± 9 nM
- inhibition at 10 µM (SK-BR-3 cells; [7]): 74.4%
- GI50 (SK-BR-3 cells; Homo sapiens, SK-BR-3, 72 h): 140 ± 12 nM

Molecule: COc1c(C)cnc(Cn2cc(C#CCC(C)(C)O)c3c(Cl)nc(N)nc32)c1C [EC144]
- efficacy relative to BIIB021 [4]: approximately 20 fold

Second part, led by results:

- melting point: 198.3 to 200.8 °C
- ∆H ([2]; ITC, 25 °C): -19.8 ± 3.29 kcal/mol
- ∆S ([2]; ITC, 25 °C): −44.5 cal/mol/deg
- N (binding stoichiometry) [2, 8]: 1.17
- Kd [2, 9]: 15600 nM
- inhibition at 10 µM [1, 5]: 35.4%
Molecule: CC(C)(C)C1=NOC(Cn2cnc3c(Cl)nc(N)nc32)C1 (centres unmarked) [Compound 4b, 9-((3-(tert-Butyl)-4,5-dihydroisoxazol-5-yl)methyl)-6-chloro-9H-purin-2-amine]
- inhibition at 10 µM (HCT116 cells; [6]): < 30%

- ∆H ([2]; ITC, 25 °C): -14.5 ± 0.4 kcal/mol
- ∆S ([2]; ITC, 25 °C): −19.4 cal/mol/deg
- N (binding stoichiometry) [2, 8]: 0.97
- Kd [2, 9]: 440 nM
- potency relative to isoxazoline congener 4b (from % inhibition) ([1]; 10 μM, FITC-GM probe): 2.7 fold
- IC50 ([1]; FITC-GM probe): 1760 nM
- inhibition at 10 µM [1, 5]: 95.8%
- GI50 (SK-BR-3 cells; Homo sapiens, SK-BR-3, 72 h): 26000 ± 1360 nM
Molecule: CC(C)(C)c1cc(Cn2cnc3c(Cl)nc(N)nc32)on1 [Compound 6b, 9-((3-(tert-Butyl)isoxazol-5-yl)methyl)-6-chloro-9H-purin-2-amine]
- inhibition at 10 µM (MCF-7 cells; 10 μM): 15.7%
- inhibition at 10 µM (HCT116 cells; [6]): 26%
- inhibition at 10 µM (SK-BR-3 cells; [7]): 45.8%

- ∆H ([2]; ITC, 25 °C): -15.8 ± 0.5 kcal/mol
- ∆S ([2]; ITC, 25 °C): −24.8 cal/mol/deg
- N (binding stoichiometry) [2, 8]: 1.00
- Kd [2, 9]: 680 nM
- IC50 ([1]; FITC-GM probe): 203 nM
- inhibition at 10 µM [1, 5]: 77.3%
Molecule: CC(C)c1cc(Cn2cnc3c(Cl)nc(N)nc32)on1 [Compound 6c, 6-Chloro-9-((3-isopropylisoxazol-5-yl)methyl)-9H-purin-2-amine]
- inhibition at 10 µM (MCF-7 cells; 10 μM): 11.9%
- inhibition at 10 µM (HCT116 cells; [6]): -0.6%
- inhibition at 10 µM (SK-BR-3 cells; [7]): 33.2%
